Entries after “also recorded” stand apart in the source; their conditions may differ.
Columns and labels:
[1] = system: STZ-diabetic rats; settings: given to rats 4 wks after induction of diabetes with STZ (Maxfield et al., 1993); cited from earlier work
[2] = system: STZ-diabetic rats; assay: Reversal protocol: AT1 antagonist from 12 wks post-STZ, morphine antinociception; settings: oral losartan 20 mg/kg/day for 4 wks commencing 12 wks post-STZ; tested at 16 wks post-STZ
Procedure: STZ-diabetic rats (n=18) were allocated to one of three experimental groups. Groups one and two received once-daily oral administration of antihypertensive doses of one of the AT1-antagonists, viz candesartan (2.0 mg/kg/day)or losartan (20 mg/kg/day), commencing at 12 weeks post-STZ administration (day 0). The third group (control STZ-diabetic rats) received no treatment.
The mean (±SEM) percentage maximum AUC (% Max AUC) was calculated according to the following formula: [formula]
The Mann-Whitney test was used to compare %MAX AUC values between treatment groups. The statistical significance criterion was p<0.05.

SMILES	Nerve blood flow (NBF) deficits [1]	Reduction in nerve conduction velocity (NCV) [1]	Effect on morphine's antinociceptive effects (s.c. morphine 6.1 mg/kg) [2]
CCc1cc2c(c(OCc3ccc(-c4ccccc4-c4nnn[nH]4)cc3)c1)CCCC2 [ZD 8731]	significant improvements	completely reverses	–
CCCCc1nc(Cl)c(CO)n1Cc1ccc(-c2ccccc2-c2nnn[nH]2)cc1 [losartan]	–	–	preserved morphine's antinociceptive effects; also recorded: morphine sensitivity was preserved
